Measurements: ChEMBL document CHEMBL1806498, “Novel imidazo[1,2-a]pyridine based inhibitors of the IGF-1 receptor tyrosine kinase: optimization of the aniline” (Bioorg Med Chem Lett, 2011)

Experiments:
physchem [1] = settings: buffer, pH 7.4
[2] = Dissociation constant, pKa of the compound at pH 7.4 by UV spectrophotometric titration; assay type: physicochemical
physchem [3] = settings: octanol/water
[4] = Aqueous solubility of the compound in phosphate buffer at pH 7.4; assay type: physicochemical

pKa [2]	solubility [4]	SMILES	logD (physchem [1])	logP (physchem [3])
	< 0.6 µM	COc1cc(N2CCN(S(C)(=O)=O)CC2)ccc1Nc1ncc(Cl)c(-c2cnc3ccccn23)n1		
8.7		COc1cc(N2CC3CNCC(C2)O3)ccc1Nc1ncc(Cl)c(-c2cnc3ccccn23)n1	2.3	3.6
8.4		COc1cc(N2CC3CN(CCO)CC(C2)O3)ccc1Nc1ncc(Cl)c(-c2cnc3ccccn23)n1		

SMILES	pKa [2]	solubility [4]	logD (physchem [1])	logP (physchem [3])
COc1cc(N2CC3COCC(C2)N3)ccc1Nc1ncc(Cl)c(-c2cnc3ccccn23)n1	6.7		3	3.1
